# Experimental data: patent US11357786B2, “Synthetic disugar hydrocarbons as natural analogs to control microbial behaviors” (Syracuse University, priority 2014, dated 2022)
# Experiments:
# Assay type in all cases: cell-based, Pseudomonas aeruginosa
# [1] = system: nonswarming P. aeruginosa mutant rhlA; experiment: Swarming motility of nonswarming rhlA mutant on soft agar (reactivation / agonist assay); conditions: for Swarming motility of rhlA mutant: 85 μM in soft agar (0.5%); for Reactivation of swarming motility of rhlA mutant: concentration not given; for Concentration of activity reversal for swarming promotion of rhlA mutant (transition concentration): soft agar
# Excerpt: Using nonswarming mutant to screen for swarming agonists and wild type P. aeruginosa for swarming antagonists. The transposon mutant, rhlA (genotype, rhlA-E08:ISphoA/hah)39 of P. aeruginosa (PAO1), that impairs the gene that is responsible for synthesizing rhamnolipids is completely incapable of a swarming motility. […] Based on this inference, a rhlA mutant was used in a swarming experiment to screen the saccharide-hydrocarbons for agonists that can reactivate the swarming motility of rhlA.
# (§1) Swarm agar plates were based on M8 medium supplemented with 0.2% glucose, 0.5% casamino acid, 1 mM MgSO4 and […]. 17 For each set of experiment all the swarm plates were poured from same batch of agar and allowed to dry for 1 h before inoculation of bacteria. Bacterial culture (3 μl) (wild type PAO1 or rhlA mutant) with OD600 between […] was inoculated on the solidified agar plates. Swarm agar plates were incubated at 37° C. for 12 h and then incubated for additional 12 h at room temp. Chronological images of swarm plates were taken using a camera. To measure swarming area, sizes of the petridish in all swarming images were adjusted to a pre-assigned diameter and images were printed on copying paper (Xerox-business 4200). Weight of a 1 cm^2 copy paper square was roughly ˜8.0 mg. swarming images on the copy paper were cut and weighed, the swarm area was calculated by dividing the weight of image by weight of 1 cm^2 square (8 mg).
# (§2) Swarm agar plates were made using M8 medium supplemented with 0.2% glucose, 0.5% casamino acid, 1 mM MgSO4 and solidified with 0.5% Bacto agar. 24 Bacterial culture with OD600 between 0.4 to 0.6 was inoculated as 3 μl aliquots. Swarm agar plates were incubated at 37° C. for 12 h and then incubated for additional 12 h at rt. For each set of experiment all the swarm plates were poured from same batch of agar and allowed to dry for 1 h before inoculation of bacteria.
# wild type PAO1 = experiment: Swarming motility of wild type PAO1 on soft agar (antagonist assay); conditions: for Swarming motility of wild type PAO1: 85 μM in soft agar; for Effect on PAO1 swarming: concentration not given; for Concentration of activity reversal for swarming inhibition of PAO1 (transition concentration): soft agar
# Experimental: In contrast, the wild type P. aeruginosa produces the rhamnolipids and is capable of swarming on soft agar gel (˜0.5% agar). […] We note that saccharide hydrocarbons may also promote the swarming motility, but such promotions are less unambiguous than the inhibition for wild type PAO1. Such promotion will be unambiguous in the agonist assay using the nonswarming mutant rhlA.
# as §1, §2
# PAO1 biofilm = experiment: Crystal violet based static biofilm inhibition assay, DSHs in LB media (Examples 2 and 4); conditions: for Inhibition of PAO1 biofilm formation (surface attached): 160 μM, 24 h, LB media, 160 µM; for Anti-biofilm activity (biofilm inhibition): concentration not given
# Experimental: The ability of DSHs was tested to inhibit Pseudomonas aeruginosa adhesion, biofilm and to disperse pre-formed biofilm. To quantify the amount of PAO1/EGFP attached on the surface of micro titer plates with or without the synthesized DSHs, fluorescence emitted by green fluorescent proteins (GFP) was quantified (see supporting info for details). Crystal violet (CV) based static biofilm assay (see supporting info) was used to screen the anti-biofilm potencies of all synthesized agents. Both surface attached (SA) (FIG. 17) and total (SA+air-liquid interface) biofilm of P. aeruginosa was quantified. […] CV assays were also used to quantify the amount of P. aeruginosa biofilm remaining after dispersion experiments (FIG. 19). Initially, all agents were screen for anti-biofilm activities (both inhibition and dispersion) at 160 μM. […] All reported biofilm inhibition results are an average of 4 identical wells.
# The effect that DSHs have on the adhesion of PAO1-EGFP on polystyrene surface (microtiter plate) was also examined. PAO1-EGFP is a P. aeruginosa strain that constitutively expresses green fluorescent protein. In the adhesion assays, PAO1-EGFP was grown in microtiter plate for 24-hours in LB-media with (160 μM) or without DSHs. After 24-hours, the fluorescent signal obtained from surface adhered PAO1-EGFP was measured. Percent reduction in fluorescence was calculated by comparing fluorescent signal from PAO1-EGFP grown in LB-media with the signal from wells that had DSHs (FIG. 29A). To study the effect of DSHs on biofilm formation, Pseudomonas aeruginosa (PAO1) was grown in LB-media with (160 μM) or without DSHs at 37° C. under static conditions within wells of microtiter plates. After 24 hours, the surface attached biofilms adhering to the bottom of the wells were stained with crystal-violet dye and the biofilm was quantified by measuring absorbance at 600 nm (OD600). […] Similar to inhibition, the surface attached biofilm after dispersion with DSHs was quantified with crystal-violet staining and absorbance measurement at 600 nm, except that for dispersion, biofilm was first grown for 1 day in just LB-media without any DSHs after which DSHs were added and plates were incubated for additional 24 hours followed by quantification (FIG. 29B).
# Crystal violet (CV) based-biofilm inhibition assay. Inhibitory effect of all synthesized disaccharide hydrocarbons on biofilm formation of Pseudomonas aeruginosa (wild type PAO1) was determined by static biofilm inhibition assay using crystal violet staining. Overnight culture of PAO1 were sub cultured in LB media to OD600 of 0.01 and further the OD600 was allowed to reach ˜0.1. The bacterial sub-culture (200 μL) was then added into the wells of a microtiter plate. Predetermined concentrations of DSHs were added to respective wells containing sub culture by pipetting out fixed volume of sterile aqueous stock solutions (except DβL (7), SPOT, (15) and 2-ODαC (17), which were introduced as stocks prepared in H2O […] and EtOH (90:10) solutions). The microtiter plates were then wrapped in GLAD Press n′ Seal® (saran wrap) and further incubated under stationary conditions for 24 h at 37° C. After 24 h incubation, the culture media was discarded by pipetting carefully (without disrupting biofilm), the plate was then washed once with sterile water (200 μL) and allowed to dry at 37° C. for ˜30 mins. Microtiter plates were then stained with 0.1% aqueous solution of crystal violet (CV) (200 μL) at rt for ˜30 mins. Following this, the CV stain was removed and plate was again washed with sterile water (200 μL). Resultant CV stain in the well was then solubilized by adding 100 μL of 30% AcOH solution (in water) and mixing gently by pipetting.
Compound,Swarming motility of rhlA mutant ([1]; 24 h),Swarming motility of wild type PAO1 (wild type PAO1; 24 h),Effect on PAO1 swarming (wild type PAO1),Anti-biofilm activity (biofilm inhibition) (PAO1 biofilm),other results
"CCCCCCCCC(CO[C@@H]1O[C@H](CO)[C@@H](O[C@H]2O[C@H](CO)[C@@H](O)[C@H](O)[C@H]2O)[C@H](O)[C@H]1O)Cc1ccc(C(C)(C)C)cc1 (stereo partly drawn) [4-tBuBDeβM, 4-tertiary butyl benzyl decyl β-maltoside]",swarming motility with without well-defined tendrils,–,–,–,–
"CCCCCCCCCCO[C@@H]1O[C@H](CO)[C@@H](O[C@H]2O[C@H](CO)[C@@H](O)[C@H](O)[C@H]2O)[C@H](O)[C@H]1O [DeβM, decyl β-matoside]",did not exhibit any significant activation of swarming,–,–,–,–
"CCCCCCCCCCCCO[C@H]1O[C@H](CO)[C@@H](O[C@@H]2O[C@H](CO)[C@@H](O)[C@H](O)[C@H]2O)[C@H](O)[C@H]1O [DαC (6), dodecyl-α-cellobioside]",no apparent reactivation of rhlA swarming,causing significant amount of tendril formation,induced tendril formation in the swarming pattern of PAO1,–,–
adamantane dodecyl β-maltoside [ADβM],"long, straight and well-defined tendrils",–,–,–,–
"CCCCCCCCCCCO[C@@H]1O[C@H](CO)[C@@H](O[C@H]2O[C@H](CO)[C@@H](O)[C@H](O)[C@H]2O)[C@H](O)[C@H]1O [UβM, undecyl β-maltoside]",swarming motility with without well-defined tendrils,–,–,–,–
"C=CCCCCCCCCCO[C@@H]1O[C@H](CO)[C@@H](O[C@@H]2O[C@H](CO)[C@@H](O)[C@H](O)[C@H]2O)[C@H](O)[C@H]1O [UDβC (10), undecylenyl-β-cellobioside]",no significant effect on the swarming motility,no significant effect on the swarming motility,no apparent effect on PAO1 swarming,did not show anti-biofilm activities,Inhibition of PAO1 biofilm formation (surface attached) (PAO1 biofilm; listed as 10: UDβC): lesser potency than DSH with completely saturated aliphatic chain
"CCCCCCCCCCCCCO[C@@H]1O[C@H](CO)[C@@H](O[C@@H]2O[C@H](CO)[C@@H](O)[C@H](O)[C@H]2O)[C@H](O)[C@H]1O [TβC (5), tridecyl-β-cellobioside]",no apparent reactivation of rhlA swarming,causing significant amount of tendril formation,induced tendril formation in the swarming pattern of PAO1,did not show significant inhibition of PAO1 biofilm,Concentration of first inhibition of rhlA swarming [1]: around 50 μM; Concentration of another activation of rhlA swarming ([1]; after first inhibition): about 160 μM; Reactivation of swarming motility of rhlA mutant [1]: activated the swarming motility of rhlA mutant; Concentration of activity reversal for swarming promotion of rhlA mutant (transition concentration) [1]: ~40 µM; Concentration of activity reversal for swarming promotion of rhlA mutant (transition concentration) ([1]; listed as 5): 40 µM; Concentration at which tendrils were induced in PAO1 (wild type PAO1): 30 µM; Concentration of activity reversal for swarming inhibition of PAO1 (transition concentration) (wild type PAO1): ~20 to 30 µM
"CCCCCCCCCCCCO[C@@H]1O[C@H](CO)[C@@H](O)[C@H](O)[C@H]1O [DβG (8), dodecyl-β-glucoside]",no apparent effect on rhlA,inhibited the swarming motility of wild type PAO1,–,weak anti-biofilm activity,Inhibition of PAO1 biofilm formation (surface attached) (PAO1 biofilm; listed as 8: DβG): poor anti-biofilm activity; Anti-biofilm activity (biofilm inhibition) (PAO1 biofilm; listed as DOG (8)): did not show significant inhibition of PAO1 biofilm; Reactivation of swarming motility of rhlA mutant [1]: activated the swarming motility of rhlA mutant; Concentration of activity reversal for swarming promotion of rhlA mutant (transition concentration) [1]: ~35 to 50 µM; Concentration of activity reversal for swarming promotion of rhlA mutant (transition concentration) ([1]; listed as 8): 35 µM; Concentration of activity reversal for swarming inhibition of PAO1 (transition concentration) (wild type PAO1): ~50 to 60 µM; Concentration of activity reversal for swarming inhibition of PAO1 (transition concentration) (wild type PAO1; listed as 8): 35 to 50 µM
"CCCCCCCCCCC(CO[C@@H]1O[C@H](CO)[C@@H](O[C@H]2O[C@H](CO)[C@@H](O)[C@H](O)[C@H]2O)[C@H](O)[C@H]1O)Cc1ccc(C)cc1 (stereo partly drawn) [4-MBDβM, 4-methyl benzyl dodecyl β-maltoside]","long, straight and well-defined tendrils",–,–,–,–
"CCCCCCCCCCCCO[C@@H]1O[C@H](CO)[C@@H](O[C@H]2O[C@H](CO)[C@@H](O)[C@H](O)[C@H]2O)[C@H](O)[C@H]1O [DβM (1), dodecyl-β-maltoside]",strong reactivation of the swarming motility in rhlA mutant,causing significant amount of tendril formation,induced tendril formation in the swarming pattern of PAO1,–,"Inhibition of PAO1 biofilm formation (surface attached) (PAO1 biofilm; listed as 1: DβM): 50%; Swarming motility of rhlA mutant ([1]; 24 h, listed as DβM): long, straight and well-defined tendrils; Swarming reactivation of rhlA mutant ([1]; 110 μM in soft agar, 24 h): fully restored the swarming of rhlA; Swarming of wild type PAO1 (wild type PAO1; 110 μM in soft agar, 24 h): did not significantly affect the swarm pattern"
"CCCCCCCCCCC(CO[C@@H]1O[C@H](CO)[C@@H](O[C@H]2O[C@H](CO)[C@@H](O)[C@H](O)[C@H]2O)[C@H](O)[C@H]1O)Cc1cc(C)cc(C)c1 (stereo partly drawn) [3,5-DMBDβM, 3,5-dimethyl benzyl dodecyl β-maltoside]","long, straight and well-defined tendrils",–,–,–,–
"CCCCCCCCCCCO[C@@H]1O[C@H](CO)[C@@H](O[C@@H]2O[C@H](CO)[C@@H](O)[C@H](O)[C@H]2O)[C@H](O)[C@H]1O [UβC (3), undecyl-β-cellobioside]",strong reactivation of the swarming motility in rhlA mutant,causing significant amount of tendril formation,induced tendril formation in the swarming pattern of PAO1,did not show significant inhibition of PAO1 biofilm,Reactivation of swarming motility of rhlA mutant [1]: activated the swarming motility of rhlA mutant
